Legend:
hERG channel = hERG channel (Homo sapiens (Human), UniProt Q12809); experiment: In-Vitro hERG Inhibition Assay (manual patch clamp); assay type: cell-based; conditions: hERG-T-REx HEK 293 cells
Experimental: The hERG-T-REx™ HEK 293 cells (Invitrogen, K1236) were generated by transfecting the hERG coding sequence in the Tet-regulated expression vector pT-Rex-DEST30 into cells expressing the Tet-repressor (T-Rex™ HEK293), thereby producing cells that can be induced to express high level of hERG channels. The cells were cultured in a medium containing of 85% DMEM, 10% dialyzed FBS, 0.1 mM NEAA, 25 mM HEPES, 100 U/mL Penicillin-Streptomycin, 5 μg/mL Blasticidin, and 400 μg/mL Geneticin. The cells were split using TrypLE™ Express (Gibco, 12604) about three times a week and maintained between ˜40% to ˜80% confluence. Before the assay, the cells were induced with doxycycline (Sigma, D9891) at 1 μg/mL for 48 hours. On the experiment day, the induced cells were resuspended and plated onto the coverslips at 5×10^5 cells/per 6 cm cell culture dish prior to use. The hERG channel-mediated current was acquired by manual patch clamp recording systems equipped with amplifiers (HEKA, EPC10 and Molecular Devices, multiclamp 700B) and the inverted phase contrast microscope (Olympus, IX51/71/73). Glass pipettes were prepared by micropipette puller (Sutter, P97 and Narishige, PC-10) and qualified by the pipette resistance in the range of 2-4 MOhms. […] The whole-cell configuration was maintained with access resistance continuously monitored (<15 MOhms). […]

MCF7 cells = experiment: Clonogenic Survival Assay in MCF7 cells; assay type: cell-based, human; conditions: for Fold 2 Gy / Fold 4 Gy: vs DMSO; for % survival @ 0 Gy w/out IR: no IR
Experimental: Human cancer cell lines, including MCF-7 human breast carcinoma cell line and A549 human lung carcinoma cell line, and HCT116 p53 wild-type and HCT116 p53−/− cell lines were obtained from ATCC. MCF7 and HCT116 cells were cultured in Dulbecco's modified Eagle's medium (DMEM (Gibco #11995-065). MDA-MB-231 human triple negative breast cancer cell line and FADU, human head and neck squamous cell carcinoma line, were obtained from Charles River Laboratories (Morrisville, NC). MDA-MB-231 and A549 cells were cultured in RPMI 1640 medium (Gibco, 11875-093). FADU cells were cultured in Minimum Essential Medium α (MEM α) (Gibco, 12571-063) supplemented with 1 mM Sodium Pyruvate (Gibco, 11360-070), 1×MEM Non-Essential Amino Acids (Gibco, 11140-050). All cell lines were supplemented with 10% fetal bovine serum (FBS) (Corning, 35-010-CV) and 1× Antibiotic-Antimycotic (Gibco #15240-062) and were grown at 37° C. in 5% CO2. All cell lines were authenticated by short tandem repeat profiling and tested negative for mycoplasma.
This assay was performed with Compound 569 as an exemplary Formula (I) compound. Cells were plated in 6-well plates at different densities: 250 cells for no IR control, 5000 cells for 2 Gy of IR and 10000 cells for 4 Gy of IR and cultured overnight. The next day, MCF7 cells were preincubated with compound 569 at 100, 250, 500, or 1000 nM or DMSO for 30 min before being exposed to increasing doses of IR (0, 2, or 4 Gy). The A549 cells were incubated with Compound 569 at 500 or 1000 nM or with DMSO for 30 min before being exposed to increasing doses of IR (0, 2, or 4 Gy). After IR, cells were continuously incubated with DMSO or compound 569 for 5 h before the culture medium was removed and cells were washed with PBS. Cells were cultured in complete medium in the absence of inhibitor for 9 days. Then cells were stained (PBS, […], 0.1% crystal violet) rinsed with water and dried.

hERG channel, sequence (Q12809 whole entry): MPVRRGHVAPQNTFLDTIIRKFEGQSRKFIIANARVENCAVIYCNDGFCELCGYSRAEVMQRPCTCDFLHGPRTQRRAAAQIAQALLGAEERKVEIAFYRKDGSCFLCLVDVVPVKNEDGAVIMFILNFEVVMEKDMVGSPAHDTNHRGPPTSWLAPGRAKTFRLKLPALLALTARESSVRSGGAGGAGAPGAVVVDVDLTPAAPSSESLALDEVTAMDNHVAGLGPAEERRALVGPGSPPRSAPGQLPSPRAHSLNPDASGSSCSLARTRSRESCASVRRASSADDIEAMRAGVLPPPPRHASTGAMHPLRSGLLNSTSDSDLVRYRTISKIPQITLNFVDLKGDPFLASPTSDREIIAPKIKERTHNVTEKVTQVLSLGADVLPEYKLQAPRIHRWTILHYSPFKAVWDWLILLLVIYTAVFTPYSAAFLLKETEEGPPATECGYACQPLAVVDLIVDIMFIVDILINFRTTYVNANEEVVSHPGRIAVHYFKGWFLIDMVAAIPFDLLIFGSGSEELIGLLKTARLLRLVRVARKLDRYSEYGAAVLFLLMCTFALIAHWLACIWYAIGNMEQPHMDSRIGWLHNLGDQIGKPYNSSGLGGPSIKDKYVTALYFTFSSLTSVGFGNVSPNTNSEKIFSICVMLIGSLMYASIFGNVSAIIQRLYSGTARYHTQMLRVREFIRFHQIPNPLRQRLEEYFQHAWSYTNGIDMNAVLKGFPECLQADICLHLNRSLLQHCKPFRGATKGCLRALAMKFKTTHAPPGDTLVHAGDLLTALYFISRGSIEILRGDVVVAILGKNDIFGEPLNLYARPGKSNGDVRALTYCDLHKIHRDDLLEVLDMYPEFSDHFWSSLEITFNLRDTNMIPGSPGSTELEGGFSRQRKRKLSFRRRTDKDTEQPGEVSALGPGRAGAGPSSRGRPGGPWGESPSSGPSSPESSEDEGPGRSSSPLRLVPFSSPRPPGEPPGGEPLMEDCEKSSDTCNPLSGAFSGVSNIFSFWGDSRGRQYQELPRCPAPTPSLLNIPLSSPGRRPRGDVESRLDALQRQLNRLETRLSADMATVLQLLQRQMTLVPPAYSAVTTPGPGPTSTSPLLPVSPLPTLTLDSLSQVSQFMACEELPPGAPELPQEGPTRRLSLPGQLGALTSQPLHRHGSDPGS

Structure (SMILES): CC(C)NCCOc1ncc(-c2cc3c4c(cnc3cc2F)N(C)C(=O)C42CCC2)cc1NS(C)(=O)=O [Compound 569, N-(5-(7′-Fluoro-3′-methyl-2′-oxo-2′,3′-dihydrospiro[cyclobutane-1,1′-pyrrolo[2,3-c]quinolin]-8′-yl)-2-(2-(isopropylamino)ethoxy)pyridin-3-yl)methanesulfonamide]
- IC50 (hERG channel): > 30 µM
- cellular toxicity in the absence of IR (MCF7 cells; 5-h exposure): without evidence of cellular toxicity
- radiosensitization (MCF7 cells; 5-h exposure, 100-1000 nM, 0, 2, 4 Gy): significant degree of radiosensitization
- Clonogenic survival ratio 0 Gy (MCF7 cells; 569 100 nM): 1.000
- Clonogenic survival ratio 2 Gy (MCF7 cells; 569 100 nM): 0.0882
- Fold 2 Gy (MCF7 cells; 569 100 nM): 7.5
- Clonogenic survival ratio 4 Gy (MCF7 cells; 569 100 nM): 0.0146
- Fold 4 Gy (MCF7 cells; 569 100 nM): 21.8
- % survival @ 0 Gy w/out IR (MCF7 cells; 569 100 nM): 92%
- Clonogenic survival ratio 0 Gy (MCF7 cells; 569 250 nM): 1.000
- Clonogenic survival ratio 2 Gy (MCF7 cells; 569 250 nM): 0.0610
- Fold 2 Gy (MCF7 cells; 569 250 nM): 10.8
- Clonogenic survival ratio 4 Gy (MCF7 cells; 569 250 nM): 0.00588
- Fold 4 Gy (MCF7 cells; 569 250 nM): 54.0
- % survival @ 0 Gy w/out IR (MCF7 cells; 569 250 nM): 97%
- Clonogenic survival ratio 0 Gy (MCF7 cells; 569 500 nM): 1.000
- Clonogenic survival ratio 2 Gy (MCF7 cells; 569 500 nM): 0.0451
- Fold 2 Gy (MCF7 cells; 569 500 nM): 14.7
- Clonogenic survival ratio 4 Gy (MCF7 cells; 569 500 nM): 0.00347
- Fold 4 Gy (MCF7 cells; 569 500 nM): 91.5
- % survival @ 0 Gy w/out IR (MCF7 cells; 569 500 nM): 105%
- Clonogenic survival ratio 0 Gy (MCF7 cells; 569 1000 nM): 1.000
- Clonogenic survival ratio 2 Gy (MCF7 cells; 569 1000 nM): 0.0301
- Fold 2 Gy (MCF7 cells; 569 1000 nM): 22.0
- Clonogenic survival ratio 4 Gy (MCF7 cells; 569 1000 nM): 0.0016
- Fold 4 Gy (MCF7 cells; 569 1000 nM): 198
- % survival @ 0 Gy w/out IR (MCF7 cells; 569 1000 nM): 100%
